Reference: publication PMC9154810, “Selective inhibition of carbonic anhydrase IX by sulphonylated 1,2,3-triazole incorporated benzenesulphonamides capable of inducing apoptosis” (Journal of Enzyme Inhibition and Medicinal Chemistry, 2022)

What was measured:
[1] = target: hCA IV (Homo sapiens, UniProt P22748); assay: stopped-flow CO2 hydrase assay, hCA IV
Description: (§1) An Sx.18Mv-R Applied Photophysics (Oxford, UK) stopped-flow instrument was used to assay the catalytic activity of various CA isozymes for CO2 hydration reaction.[21]

[2] = target: hCA I (Homo sapiens, UniProt P00915); assay: stopped-flow CO2 hydrase assay, hCA I; settings: mean from three assays, stopped-flow technique, errors ± 5–10%
Description: as §1

[3] = target: hCA II (Homo sapiens, UniProt P00918); assay: stopped-flow CO2 hydrase assay, hCA II
Description: as §1

[4] = target: hCA IX (Homo sapiens, UniProt Q16790); assay: stopped-flow CO2 hydrase assay, hCA IX; settings: for Selectivity index I/IX: ratio KI hCA I / KI hCA IX; for Selectivity index II/IX: ratio KI hCA II / KI hCA IX
Description: as §1

Chain of hCA IV (P22748 19-312): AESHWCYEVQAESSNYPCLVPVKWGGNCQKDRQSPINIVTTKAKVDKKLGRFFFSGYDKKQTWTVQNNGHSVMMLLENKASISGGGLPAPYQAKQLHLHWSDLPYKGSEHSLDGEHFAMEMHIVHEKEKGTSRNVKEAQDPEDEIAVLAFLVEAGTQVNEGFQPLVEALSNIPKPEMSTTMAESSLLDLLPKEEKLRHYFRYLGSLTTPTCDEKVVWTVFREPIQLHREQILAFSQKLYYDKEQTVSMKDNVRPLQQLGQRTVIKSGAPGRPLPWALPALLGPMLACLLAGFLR
Chain of hCA I (P00915 whole entry): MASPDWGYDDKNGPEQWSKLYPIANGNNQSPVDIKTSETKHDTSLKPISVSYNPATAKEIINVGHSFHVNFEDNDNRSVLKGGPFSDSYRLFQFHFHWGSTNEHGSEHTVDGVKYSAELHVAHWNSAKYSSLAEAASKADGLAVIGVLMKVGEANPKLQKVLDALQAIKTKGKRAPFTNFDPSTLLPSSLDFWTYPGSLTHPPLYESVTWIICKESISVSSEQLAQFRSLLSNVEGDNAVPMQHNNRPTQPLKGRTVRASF

Compound	Ki [1] [nM]	Ki [2] [nM]	Ki [3] [nM]	melting point [°C]	Ki [4] [nM]	Selectivity index I/IX [4]	Selectivity index II/IX [4]	selectivity for hCA IX over hCA I [4]	selectivity for hCA IX over hCA II [4]
NS(=O)(=O)c1ccc(-n2nnc(S(=O)(=O)c3ccccc3)c2-c2ccccc2)cc1 [Compound 9a, 4-(5-phenyl-4-(phenylsulphonyl)-1H-1,2,3-triazol-1-yl)benzenesulphonamide]	149	97.9	9.6	214 to 216	21.5	4.55	0.45	–	–
Cc1ccc(-c2c(S(=O)(=O)c3ccccc3)nnn2-c2ccc(S(N)(=O)=O)cc2)cc1 [Compound 9b, 4-(4-(phenylsulphonyl)-5-(p-tolyl)-1H-1,2,3-triazol-1-yl)benzenesulphonamide]	82.1	767	7.8	205 to 207	30.9	–	0.25	–	–
NS(=O)(=O)c1ccc(-n2nnc(S(=O)(=O)c3ccccc3)c2-c2ccc(F)cc2)cc1 [Compound 9c, 4-(5-(4-fluorophenyl)-4-(phenylsulphonyl)-1H-1,2,3-triazol-1-yl)benzenesulphonamide]	86.1	264	6.6	207 to 209	66	4.00	0.10	–	–
NS(=O)(=O)c1ccc(-n2nnc(S(=O)(=O)c3ccccc3)c2-c2ccc(Cl)cc2)cc1 [Compound 9d, 4-(5-(4-chlorophenyl)-4-(phenylsulphonyl)-1H-1,2,3-triazol-1-yl)benzenesulphonamide]	526	4630	56.7	213 to 215	25.1	184.42	2.26	more than 100 fold	–
NS(=O)(=O)c1ccc(-n2nnc(S(=O)(=O)c3ccccc3)c2-c2ccc(Br)cc2)cc1 [Compound 9e, 4-(5-(4-bromophenyl)-4-(phenylsulphonyl)-1H-1,2,3-triazol-1-yl)benzenesulphonamide]	801	7840	220	198 to 200	30.1	260.40	7.32	more than 100 fold	–
NS(=O)(=O)c1ccc(-n2nnc(S(=O)(=O)c3ccccc3)c2-c2cccc(Br)c2)cc1 [Compound 9f, 4-(5-(3-bromophenyl)-4-(phenylsulphonyl)-1H-1,2,3-triazol-1-yl)benzenesulphonamide]	94.8	434	9.2	282 to 284	27.1	16.00	0.34	–	–
COc1ccc(-c2c(S(=O)(=O)c3ccccc3)nnn2-c2ccc(S(N)(=O)=O)cc2)cc1 [Compound 9g, 4-(5-(4-methoxyphenyl)-4-(phenylsulphonyl)-1H-1,2,3-triazol-1-yl)benzenesulphonamide]	493	7840	6.2	235 to 237	24.9	314.73	0.25	more than 100 fold	–
COc1ccc(-c2c(S(=O)(=O)c3ccccc3)nnn2-c2ccc(S(N)(=O)=O)cc2)cc1Br [Compound 9h, 4-(5-(3-bromo-4-methoxyphenyl)-4-(phenylsulphonyl)-1H-1,2,3-triazol-1-yl)benzenesulphonamide]	1210	9350	37.6	210 to 212	28.8	324.62	1.30	more than 100 fold	–
NS(=O)(=O)c1ccc(-n2nnc(S(=O)(=O)c3ccccc3)c2-c2ccc([N+](=O)[O-])cc2)cc1 [Compound 9i, 4-(5-(4-nitrophenyl)-4-(phenylsulphonyl)-1H-1,2,3-triazol-1-yl)benzenesulphonamide]	84.7	285	4.9	–	32.4	–	–	–	–
NS(=O)(=O)c1ccc(-n2nnc(S(=O)(=O)c3ccccc3)c2-c2cccc([N+](=O)[O-])c2)cc1 [Compound 9j, 4-(5-(3-nitrophenyl)-4-(phenylsulphonyl)-1H-1,2,3-triazol-1-yl)benzenesulphonamide]	89.6	45.4	6.1	–	26.3	–	–	–	–
NS(=O)(=O)c1ccc(-n2nnc(S(=O)(=O)c3ccccc3)c2-c2ccc(-c3ccccc3)cc2)cc1 [Compound 9k, 4-(5-([1,1′-biphenyl]-4-yl)-4-(phenylsulphonyl)-1H-1,2,3-triazol-1-yl)benzenesulphonamide]	414	3540	833	214 to 216	24.8	142.86	33.60	more than 100 fold	more than 30 fold
NS(=O)(=O)c1cccc(-n2nnc(S(=O)(=O)c3ccccc3)c2-c2ccccc2)c1 [Compound 10a, 3-(5-phenyl-4-(phenylsulphonyl)-1H-1,2,3-triazol-1-yl)benzenesulphonamide]	78.6	607	161	172 to 174	26	23.35	6.20	–	–
Cc1ccc(-c2c(S(=O)(=O)c3ccccc3)nnn2-c2cccc(S(N)(=O)=O)c2)cc1 [Compound 10b, 3-(4-(phenylsulphonyl)-5-(p-tolyl)-1H-1,2,3-triazol-1-yl)benzenesulphonamide]	347	566	21.8	186 to 188	21.2	26.71	1.03	–	–
NS(=O)(=O)c1cccc(-n2nnc(S(=O)(=O)c3ccccc3)c2-c2ccc(F)cc2)c1 [Compound 10c, 3-(5-(4-fluorophenyl)-4-(phenylsulphonyl)-1H-1,2,3-triazol-1-yl)benzenesulphonamide]	78.9	454	119	–	22.8	–	–	–	–
NS(=O)(=O)c1cccc(-n2nnc(S(=O)(=O)c3ccccc3)c2-c2ccc(Br)cc2)c1 [Compound 10e, 3-(5-(4-bromophenyl)-4-(phenylsulphonyl)-1H-1,2,3-triazol-1-yl)benzenesulphonamide]	80.1	636	138	96 to 98	25.1	25.33	5.50	–	–
NS(=O)(=O)c1cccc(-n2nnc(S(=O)(=O)c3ccccc3)c2-c2cccc(Br)c2)c1 [Compound 10f, 3-(5-(3-bromophenyl)-4-(phenylsulphonyl)-1H-1,2,3-triazol-1-yl)benzenesulphonamide]	84.3	689	370	97 to 99	28.6	24.10	12.93	–	–
COc1ccc(-c2c(S(=O)(=O)c3ccccc3)nnn2-c2cccc(S(N)(=O)=O)c2)cc1 [Compound 10g, 3-(5-(4-methoxyphenyl)-4-(phenylsulphonyl)-1H-1,2,3-triazol-1-yl)benzenesulphonamide]	84	509	44.3	–	24.1	–	–	–	–
NS(=O)(=O)c1cccc(-n2nnc(S(=O)(=O)c3ccccc3)c2-c2ccc([N+](=O)[O-])cc2)c1 [Compound 10i, 3-(5-(4-nitrophenyl)-4-(phenylsulphonyl)-1H-1,2,3-triazol-1-yl)benzenesulphonamide]	64.4	868	35.2	–	27	–	–	–	–
NS(=O)(=O)c1cccc(-n2nnc(S(=O)(=O)c3ccccc3)c2-c2cccc([N+](=O)[O-])c2)c1 [Compound 10j, 3-(5-(3-nitrophenyl)-4-(phenylsulphonyl)-1H-1,2,3-triazol-1-yl)benzenesulphonamide]	1680	6900	884	–	26.7	–	–	–	–
NS(=O)(=O)c1cccc(-n2nnc(S(=O)(=O)c3ccccc3)c2-c2ccc(-c3ccccc3)cc2)c1 [Compound 10k, 3-(5-([1,1′-biphenyl]-4-yl)-4-(phenylsulphonyl)-1H-1,2,3-triazol-1-yl)benzenesulphonamide]	849	2060	211	74 to 76	22.6	91.02	9.33	–	–
